#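 Where inhibition never reached the appropriate level, the endpoint shown equals the highest concentration tested. Otherwise, values were interpolated linearly from a five-concentration, 48-hour dose response in 96-well plates. GI50 is the concentration that inhibits growth by half.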 The source made the active and inactive calls. No stated cut-off is given here; in the data, active = GI50 up to about 1.1 µM and inactive = higher.
# Assays:
# Test in all cases: inhibition of tumour cell growth, NCI panel, 48 h
# SW-620 = test system: SW-620
# DLD-1 = test system: DLD-1
# EKVX = test system: EKVX
# COLO 205 = test system: COLO 205
# CCRF-CEM = test system: CCRF-CEM
# DMS-114 = test system: DMS-114
# ACHN = test system: ACHN
# UACC-62 = test system: UACC-62
# SK-OV-3 = test system: SK-OV-3
# A549 = test system: A549
# RXF 393 = test system: RXF 393
# SN12C = test system: SN12C
# HT-29 = test system: HT-29
# CAKI-1 = test system: CAKI-1
# HCT-116 = test system: HCT-116
# U-251 = test system: U-251
# Malme-3M = test system: Malme-3M
# NCI-H23 = test system: NCI-H23
# K562 = test system: K562
# SK-MEL-5 = test system: SK-MEL-5
# KM-20L2 = test system: KM-20L2
# HOP-92 = test system: HOP-92
# M14 = test system: M14
# SR = test system: SR
# NCI-H522 = test system: NCI-H522
# SF-539 = test system: SF-539
# SK-MEL-2 = test system: SK-MEL-2
# XF498 = test system: XF498
# SNB-78 = test system: SNB-78
# NCI-H460 = test system: NCI-H460
# OVCAR-3 = test system: OVCAR-3
# SF-268 = test system: SF-268
# LXFL 529 = test system: LXFL 529
# OVCAR-5 = test system: OVCAR-5
# LOX IMVI = test system: LOX IMVI
# DMS-273 = test system: DMS-273
# OVCAR-8 = test system: OVCAR-8
# IGROV-1 = test system: IGROV-1
# SK-MEL-28 = test system: SK-MEL-28
# M19-MEL = test system: M19-MEL
# SF-295 = test system: SF-295
# TK-10 = test system: TK-10
# SNB-75 = test system: SNB-75
# 786-0 = test system: 786-0
# HCC 2998 = test system: HCC 2998
# MOLT-4 = test system: MOLT-4
# OVCAR-4 = test system: OVCAR-4
# KM12 = test system: KM12
# UO-31 = test system: UO-31
# SNB-19 = test system: SNB-19
# A498 = test system: A498
# RPMI-8226 = test system: RPMI-8226
# HCT-15 = test system: HCT-15
# HOP-18 = test system: HOP-18
# UACC-257 = test system: UACC-257
# HOP-62 = test system: HOP-62
compound,measurement,setting,value
CCOC(=O)C1COc2cc(-c3cc(=O)c4ccccc4o3)ccc2O1 (configuration not stated),GI50,SW-620,> 100 µM (inactive)
same,GI50,DLD-1,36.1 µM (inactive)
same,GI50,EKVX,95.1 µM (inactive)
same,GI50,COLO 205,> 100 µM (inactive)
same,GI50,CCRF-CEM,> 100 µM (inactive)
same,GI50,DMS-114,42.6 µM (inactive)
same,GI50,ACHN,> 100 µM (inactive)
same,GI50,UACC-62,36.8 µM (inactive)
same,GI50,SK-OV-3,> 100 µM (inactive)
same,GI50,A549,> 100 µM (inactive)
same,GI50,RXF 393,47.8 µM (inactive)
same,GI50,SN12C,29.5 µM (inactive)
same,GI50,HT-29,22.8 µM (inactive)
same,GI50,CAKI-1,> 100 µM (inactive)
same,GI50,HCT-116,> 100 µM (inactive)
same,GI50,U-251,> 100 µM (inactive)
same,GI50,Malme-3M,> 100 µM (inactive)
same,GI50,NCI-H23,> 100 µM (inactive)
same,GI50,K562,> 100 µM (inactive)
same,GI50,SK-MEL-5,> 100 µM (inactive)
same,GI50,KM-20L2,> 100 µM (inactive)
same,GI50,HOP-92,10.4 µM (inactive)
same,GI50,M14,> 100 µM (inactive)
same,GI50,SR,> 100 µM (inactive)
same,GI50,NCI-H522,19.2 µM (inactive)
same,GI50,SF-539,30.5 µM (inactive)
same,GI50,SK-MEL-2,> 100 µM (inactive)
same,GI50,XF498,30.6 µM (inactive)
same,GI50,SNB-78,51.1 µM (inactive)
same,GI50,NCI-H460,33.8 µM (inactive)
same,GI50,OVCAR-3,> 100 µM (inactive)
same,GI50,SF-268,> 100 µM (inactive)
same,GI50,LXFL 529,65.2 µM (inactive)
same,GI50,OVCAR-5,78.9 µM (inactive)
same,GI50,LOX IMVI,52.7 µM (inactive)
same,GI50,DMS-273,> 100 µM (inactive)
same,GI50,OVCAR-8,24.7 µM (inactive)
same,GI50,IGROV-1,66.8 µM (inactive)
same,GI50,SK-MEL-28,> 100 µM (inactive)
same,GI50,M19-MEL,29.7 µM (inactive)
same,GI50,SF-295,> 100 µM (inactive)
same,GI50,TK-10,> 100 µM (inactive)
same,GI50,SNB-75,47.9 µM (inactive)
same,GI50,786-0,> 100 µM (inactive)
same,GI50,HCC 2998,> 100 µM (inactive)
same,GI50,MOLT-4,> 100 µM (inactive)
same,GI50,OVCAR-4,42.9 µM (inactive)
same,GI50,KM12,> 100 µM (inactive)
same,GI50,UO-31,30.5 µM (inactive)
same,GI50,SNB-19,> 100 µM (inactive)
C[C@]12CC[C@H](OC3CCCCO3)CC1=CC[C@@H]1C2CC[C@]2(C)/C(=N/O)CCC12 (some centres not stated),GI50,SW-620,36.9 µM (inactive)
same,GI50,DLD-1,48.2 µM (inactive)
same,GI50,EKVX,23.7 µM (inactive)
same,GI50,COLO 205,> 10 µM (inactive)
same,GI50,DMS-114,17.5 µM (inactive)
same,GI50,ACHN,18.2 µM (inactive)
same,GI50,UACC-62,42.7 µM (inactive)
same,GI50,SK-OV-3,34.9 µM (inactive)
same,GI50,A549,18.5 µM (inactive)
same,GI50,RXF 393,23.2 µM (inactive)
same,GI50,A498,> 100 µM (inactive)
same,GI50,RPMI-8226,10.6 µM (inactive)
same,GI50,SN12C,14.2 µM (inactive)
same,GI50,HT-29,12.3 µM (inactive)
same,GI50,CAKI-1,40.6 µM (inactive)
same,GI50,HCT-116,16.1 µM (inactive)
same,GI50,U-251,19.6 µM (inactive)
same,GI50,Malme-3M,17.9 µM (inactive)
same,GI50,HCT-15,14.5 µM
same,GI50,NCI-H23,19.9 µM (inactive)
same,GI50,K562,14.4 µM (inactive)
same,GI50,SK-MEL-5,88.9 µM (inactive)
same,GI50,KM-20L2,12.6 µM (inactive)
same,GI50,HOP-92,23.9 µM (inactive)
same,GI50,M14,21.4 µM (inactive)
same,GI50,NCI-H522,16.9 µM (inactive)
same,GI50,SF-539,47.1 µM (inactive)
same,GI50,SK-MEL-2,36.8 µM (inactive)
same,GI50,XF498,40.6 µM (inactive)
same,GI50,HOP-18,16 µM (inactive)
same,GI50,SNB-78,20.7 µM (inactive)
same,GI50,NCI-H460,18.8 µM (inactive)
same,GI50,OVCAR-3,17 µM (inactive)
same,GI50,LXFL 529,16.6 µM (inactive)
same,GI50,OVCAR-5,19.4 µM (inactive)
same,GI50,LOX IMVI,13.8 µM (inactive)
same,GI50,DMS-273,17.5 µM (inactive)
same,GI50,UACC-257,30.3 µM (inactive)
same,GI50,OVCAR-8,19.2 µM (inactive)
same,GI50,HOP-62,> 100 µM (inactive)
same,GI50,IGROV-1,> 100 µM (inactive)
same,GI50,SK-MEL-28,21.3 µM (inactive)
same,GI50,SF-295,15.1 µM (inactive)
same,GI50,TK-10,30.5 µM (inactive)
same,GI50,SNB-75,20.5 µM (inactive)
same,GI50,786-0,20.4 µM (inactive)
same,GI50,HCC 2998,17.5 µM (inactive)
same,GI50,MOLT-4,10.9 µM (inactive)
same,GI50,OVCAR-4,16.4 µM (inactive)
same,GI50,KM12,15.6 µM (inactive)
same,GI50,UO-31,39.1 µM (inactive)
same,GI50,SNB-19,26.5 µM (inactive)
